Laboratory results published in US20250179429A1, “CELL CULTURE MEDIUM” (Auckland UniServices Limited, priority 2017, published 2025).
“Also recorded” adds a separate entry of the source. Counter-ions that a name gives are not always drawn. Like-named read-outs stand apart in the source and are kept apart here.

Key:
[1] = tested on: Human primary keratinocytes; assay: Keratinocyte growth in culture media: rhodamine B staining, confluency measured with Operetta plate reader; type: cell-based; conditions: for effect of ROCK inhibitor on keratinocyte growth, FIG. 3: Y27632 10 μm vs SB772077B 400 nM in Base, Kelch's or Green's medium, 3 donors; for effect of Y27632 on keratinocyte growth, FIG. 5: 8 days
[2] = tested on: epidermal cells; assay: Greens, Cellntech, S7, EDGS medium comparison (rhodamine B, confluency score 0 to 4); type: cell-based; conditions: added to Green's medium with MEFs and commercial keratinocyte growth media
Protocol: Epidermal cells were grown in Greens medium with MEFs, CnT Prime, Epilife medium supplemented with S7 or EDGS. All media were tested with and without ROCK inhibitor Y27632. 550,000 epidermal cells were grown in each medium until one sample reached 80% confluence, at this point all samples were fixed and stained for rhodamine B. Sample confluency was then assigned a score between 0 and 4, 0 having no cells, and 4 having maximum confluency. N=2.
Flasks were pre-coated with a coating matrix for S7 and EDGS supplemented Epilife medium samples. 1.7 ml of dilution buffer was added to each T25 flask. Then 17 μl of coating matrix was added. The mixture was incubated at room temperature for 30 minutes. Next, the dilution buffer and coating matrix mix were removed from the flasks before adding cells and media.
550,000 epidermal cells and 5 ml of each required medium was added, with or without 10 μl Y27632, to a T25 flask. The flask was incubated at 37° C. with 5% CO2 until one sample reached 80% confluency.
Next, the medium was removed from the flasks and the cells fixed with 4% formaldehyde for 30 minutes. 1% rhodamine B solution was added and the cells incubated at room temperature for 10 minutes. The rhodamine B solution was removed and the cells thoroughly rinsed with water. Finally, all liquid from the flasks was removed using a pipette. The cells were imaged and confluency was calculated.

[3] = Green's media + Y27632, MEFs not present

CCn1c(-c2nonc2N)nc2cncc(C(=O)N3CC[C@H](N)C3)c21 [SB772077B, (3S)-1-[[2-(4-Amino-1,2,5-oxadiazol-3-yl)-1-ethyl-1H-imidazo[4,5-c]pyridin-7-yl]carbonyl]-3-pyrrolidinamine dihydrochloride, reference compound] was tested, and the “ROCK inhibitor concentration to achieve the same effect (enhancing keratinocyte growth rates)” value ([1]; SB 772077B vs Y27632) was roughly 400 nm and the “effect of ROCK inhibitor on keratinocyte growth, FIG. 3” value ([1]; dihydrochloride) was “comparable effects on keratinocyte growth; also recorded: can be used as substitute for Y27632 for keratinocyte growth”.
For C[C@@H](N)[C@H]1CC[C@H](C(=O)Nc2ccncc2)CC1 [Y27632, reference compound], the “effect of ROCK inhibitor on keratinocyte growth, FIG. 3” value [1] was “comparable effects on keratinocyte growth”, the “ROCK inhibitor concentration to achieve the same effect (enhancing keratinocyte growth rates)” value ([1]; Y27632 vs SB 772077B) was 10 μm and the “effect of Y27632 on keratinocyte growth, FIG. 5” value ([1]; added to Green's medium with MEFs) was “can enhance growth of keratinocytes”. The “effect of Y27632 on keratinocyte growth, FIG. 5” value ([1]; added to serum-free Optipeak media) was “enhanced growth of keratinocytes; also recorded: a few colonies started to develop” and the “effect of Y27632 on keratinocyte growth, FIG. 6” value [2] was “may also enhance growth of keratinocytes in other keratinocyte growth media; also recorded: enhanced keratinocyte growth in Green's medium, S7 medium and CnT Prime medium”.
For Nc1ncnc2nc[nH]c12 [adenine], the “effect on keratinocyte growth of leaving one component out of Green's media, FIG. 1” value (“effect on keratinocyte growth” for short) [1, 3] was “appears to enhance growth of keratinocytes”.
In the case of “EGF: epidermal growth factor, component of Green's medium at 10 ng/ml (NSDSECPLSHDGYCLHDGVCMYIEALDKYACNCVVGYIGERCQYRDLKWWELR; Epidermal growth factor; UniProt P01133 971-1023, looked up)”, the “effect on keratinocyte growth” value [1, 3] was “important components of Green's medium in generating keratinocyte proliferation; also recorded: negatively affect keratinocyte growth” and the “effect of EGF on keratinocyte growth (later finding)” value ([1]; data not shown) was “not enhancing keratinocyte growth”.
In the case of choleratoxin, the “effect on keratinocyte growth” value [1] was “important components of Green's medium in generating keratinocyte proliferation; also recorded: negatively affect keratinocyte growth; also recorded: one of the most important single ingredients of Green's media”.
